Read-outs that look alike come from different tables or passages of the source. Marks after values point to notes of the source that are not given here.
Columns and labels:
E. coli O157:H7 [1] = assay: BS EN 1276 test for sanitizer efficacy of NaClO; format: cell-based; conditions: 0.03% bovine serum, 5 min, 22±1° C.
Source text: (§1) This example illustrates an embodiment of the effectiveness of the inventive composition. […]. The four most acid-resistant strains out of the fourteen were selected for use in this study. These four strains consisted of cattle isolate #'s 199, 758, 851, and 859, provided by Dr. T. G. Nagaraja (Distinguished Microbiology Professor, Kansas State University, Department of Veterinary Medicine). Five outbreak strains of Listeria monocytogenes were used, including L499, L502, L008, L2624, and L2625, provided by Dr. Bassam Annous (USDA-ARS-ERRC). Four serovars of S. enterica (Salmonella Newport H1275 (ERRC culture collection)), St. Paul 02-517-1 (cantaloupe outbreak), Stanley H0558 (CDC stool sample, 1995 sprout outbreak), and Montevideo G4639 (1993 tomato outbreak)) were also utilized. All isolates (except for the L. monocytogenes outbreak strains) were selected for spontaneous mutants resistant to 100 ppm of the antibiotic compound nalidixic acid (L. monocytogenes is naturally resistant to 100 ppm nalidixic acid and so was plated on media containing 100 ppm nalidixic acid without need for selection of spontaneous mutants). Isolates were individually incubated for 24 h at 37° C. in 10 mL of Tryptic Soy Broth (Difco, Sparks, Md.)+100 ppm nalidixic acid (TSBN), as an antimicrobial marker and to preclude potential contamination on plates. Suspensions were centrifuged at 1980×g for 10 min, and resuspended in 5 ml of sterile deionized water and vortexed vigorously for 3 minutes. All strains of each individual species of bacteria were composited in a single sterile 500 mL beaker for inoculation of grape tomatoes.
(§2) L. monocytogenes was plated on Thermo Scientific™ Brilliance™ Listeria Agar (BLA, ThermoFisher Scientific, Fairlawn, N.J.)+100 ppm nalidixic acid without the addition of BLA antimicrobial supplements+0.1% sodium pyruvate (to aid in recovering injured cells) (see e.g., Gurtler, J. B. & L. R. Beuchat, (2005) Appl. Environ. Microbiol. 71:7661-7669; Gurtler, J. B. & Kornacki, J. L. (2009) Lett. Appl. Microbiol. 49:503-509; Wesche, A. M., et al. (2009) J. Food Prot. 72, 1121-1138). Salmonella was plated on tryptic soy agar (Difco)+100 mg/L nalidixic acid+0.1% sodium pyruvate+80 mg/L X-α-Gal (5-Bromo-4-Chloro-3-indolyl-α-D-galactopyranoside) (Research Products Intl., Mt. Prospect, Ill.)+100 mg/L Isopropyl-β-D-thiogalactopyranoside (IPTG, Fisher Scientific). X-α-Gal induces a green color change by salmonellae colonies. E. coli O157:H7 was plated tryptic soy agar (Difco)+100 mg/L nalidixic acid+0.1% sodium pyruvate+175 mg/L red/salmon-Gal (6-Chloro-3-indolyl-β-D-galactopyranoside)+100 mg/L IPTG. Red/salmon-Gal induces a pink color change by E. coli colonies.
(§3) BS EN 1276 Test for Sanitizer Efficacy of Sodium Hypochlorite (NaClO). The British Standard, European Normalization Method 1276 for sanitizers was chosen to evaluate the efficacy low level NaClO. The level of free chlorine ranged from 10 to 48 ppm free chlorine, as tested with the LaMotte Model CL-BR 3624 titration kit (Chestertown, Md.). The BS EN 1276 method as well as the French AFNOR NFT 72170 method has been traditionally used to evaluate sanitizer effectiveness (see e.g., Jacquet, C., and Reynaud, A. (1994) Int. J. Food Microbiol. 22:79-83; Taylor, J. H., et al. (1999) Int. J. Appl. Microbiol. 87:718-725). The BS EN 1276 method involves adding 0.03% bovine albumin to represent clean conditions and 0.3% albumin for dirty conditions. Briefly, 1 ml of either 0.03% or 0.3% bovine serum was added to a sterile 15 ml test tube, followed by 1 ml of the ca. 9 log CFU/ml test solution of each bacterial composite. The suspension was permitted to sit for 2 min and then 8 ml of an appropriately diluted NaClO solution was added to the 2 ml of bacteria-bovine solution suspension where concentrations of sanitizer solution were adjusted to mathematically account for the 2:8 dilution with the pathogen suspension at 10 ppm, 16 ppm, and 48 ppm. All tests were conducted at 22±1° C. […]

Listeria Monocytogenes = assay: BS EN 1276 test for sanitizer efficacy of NaClO; format: cell-based; conditions: 0.03% bovine serum, 5 min, 22±1° C.
Source text: as §1, §2, §3

pH of wash solution = format: physicochemical; conditions: wash solutions of the grape tomato test (Table 4)
Aerobic Bacteria = conditions: cited from earlier work
EHEC & Salmonella = conditions: Lettuce, Cl 200 PPM, cited from earlier work
L. monocytogenes [2] = conditions: cited from earlier work
Salmonella [3] = conditions: Parsley, Cl 100 PPM, 5 min, Lapidot et al. (2006); cited from earlier work
[4] = tested on: S. enterica, L. monocytogenes or E. coli O157:H7; assay: BS EN 1276 chlorine test, summary over the three pathogens; format: cell-based; conditions: 48 ppm chlorine, 5 min, 3% bovine albumin (dirty conditions)
L. monocytogenes [5] = format: cell-based, Listeria monocytogenes; conditions: dip-inoculated grape tomatoes, 100 ml wash, 2 min
Source text: as §1, with “Suspensions were centrifuged at 1980×g for 10 min, and resuspended in 5 ml of sterile deionized water and vortexed vigorously for 3 minutes. All strains of each individual species of bacteria were composited in a single sterile 500 mL beaker for inoculation of grape tomatoes.” left out

[6] = tested on: Salmonella and E. coli O157:H7; conditions: strawberries, 6.44 pH-adjusted free chlorine, 198 ppm; cited from earlier work
EHEC = conditions: cited from earlier work
Listeria innocua = conditions: Lettuce, Cl 10 PPM, 5.0 min, Francis and O'Beime (2002); cited from earlier work
E. coli = conditions: Cl 100 PPM, 10.0 min, cited from earlier work
Salmonella [7] = assay: BS EN 1276 test for sanitizer efficacy of NaClO; format: cell-based, S. enterica; conditions: 0.03% bovine serum, 5 min, 22±1° C.
Source text: as §1, with “tomatoes. […]” for “tomatoes.”

E. coli O157:H7 [8] = format: cell-based; conditions: dip-inoculated grape tomatoes, 100 ml wash, 2 min
Source text: as §1, with “Suspensions were centrifuged at 1980×g for 10 min, and resuspended in 5 ml of sterile deionized water and vortexed vigorously for 3 minutes. All strains of each individual species of bacteria were composited in a single sterile 500 mL beaker for inoculation of grape tomatoes.” left out

Total Coliforms [9] = conditions: watercress, 200 ppm NaOCl, pH-unadjusted; cited from earlier work
[10] = tested on: Salmonella and E. coli O157:H7; conditions: tomato stem scars, 200 ppm free chlorine, pH-unadjusted; cited from earlier work
Salmonella [11] = format: cell-based, S. enterica; conditions: dip-inoculated grape tomatoes, 100 ml wash, 2 min
Source text: as §1, with “Suspensions were centrifuged at 1980×g for 10 min, and resuspended in 5 ml of sterile deionized water and vortexed vigorously for 3 minutes. All strains of each individual species of bacteria were composited in a single sterile 500 mL beaker for inoculation of grape tomatoes.” left out

Total Coliforms [12] = conditions: Lettuce, Cl 200 PPM, 10 min, Nascimento et al. (2003); cited from earlier work
[13] = tested on: Salmonella, E. coli, Listeria monocytogenes, coliforms or aerobic mesophilic bacteria; assay: Previous studies: produce treated with NaClO, summary of Table 1; format: cell-based; conditions: Table 1 studies, average 154.2 ppm free chlorine, average treatment time 5.42 min

For `OCl` [NaClO, sodium hypochlorite], the “log CFU/mL reduction” value (E. coli O157:H7 [1]; 10 ppm free chlorine) was 0.64 B^a ± 0.32^b log CFU/mL, the “log CFU/mL reduction” value (E. coli O157:H7 [1]; 16 ppm free chlorine) was 1.79 A ± 0.21 log CFU/mL and the “log CFU/mL reduction” value (E. coli O157:H7 [1]; 48 ppm free chlorine) was 0.33 ± 0.47^c log CFU/mL. The “log CFU/mL reduction” value (Listeria Monocytogenes; 10 ppm free chlorine) was 1.22 B ± 0.19 log CFU/mL, the “log CFU/mL reduction” value (Listeria Monocytogenes; 16 ppm free chlorine) was 2.77 A ± 0.36 log CFU/mL and the “log CFU/mL reduction” value (Listeria Monocytogenes; 48 ppm free chlorine) was 0.53 ± 0.21 log CFU/mL. For the same compound, the “pH Values” (pH of wash solution) was 9.88, the Inactivation (Aerobic Bacteria; Diced Tomato, Cl 200 PPM, 0.5 min, Simmons et al. (2006)) was 0.00 Log CFU and the Inactivation (Aerobic Bacteria; Lettuce, Cl 75 PPM, 5 min, Lu et al. (2007)) was 2.0 Log CFU. For the same compound, the Inactivation (Aerobic Bacteria; Lettuce, Cl 150 PPM, 10 min, Koseki et al. (2001)) was 2.0 Log CFU, the Inactivation (Aerobic Bacteria; Lettuce, Cl 200 PPM, 0.5 min, Simmons et al. (2006)) was 1.30 Log CFU and the Inactivation (Aerobic Bacteria; Lettuce, Cl 200 PPM, 10.0 min, Kondo et al. (2006)) was 0.9 Log CFU. The Inactivation (EHEC & Salmonella; 1.0 min, Koseki et al. (2003)) was “ca. 1.0 Log CFU”, the Inactivation (EHEC & Salmonella; 10.0 min, Kondo et al. (2006)) was 1.2 Log CFU and the Inactivation (L. monocytogenes [2]; Lettuce (4° C.), Cl 200 PPM, 10.0 min, Zhang & Farber (1996)) was 1.3 Log CFU. The Inactivation (L. monocytogenes [2]; Lettuce, Cl 20 PPM, 0.5 min, Li et al. (2002)) was 1.2 Log CFU, the Inactivation (L. monocytogenes [2]; Lettuce, Cl 100 PPM, 1.0 min, Hellstrom et al. (2006)) was 0.7 Log CFU and the Inactivation (L. monocytogenes [2]; Lettuce, Cl 100 PPM, 5.0 min, Akbas and Oimez (2007)) was 1.7 Log CFU. For the same compound, the Inactivation (Salmonella [3]) was 1.7 Log CFU, the inactivated log [4] was “less than 0.76 log” and the “reduction, L. monocytogenes” value (L. monocytogenes [5]) was 3.16 ± 0.61 B log CFU/g. The “inactivated log CFU” value [6] was 1.86 log CFU, the Inactivation (EHEC; Lettuce & Spinach, Cl 600 PPM, 3.0 min, Niemera, 2007) was 0.5 Log CFU and the Inactivation (EHEC; Lettuce, Cl 20 PPM, 1.0 min, Li et al. (2001)) was 1.1 Log CFU. The Inactivation (Listeria innocua) was 1.5 Log CFU, the Inactivation (E. coli; Cabbage/Parsley, Seymot et al. (2002)) was “ca 1.45 Log CFU” and the Inactivation (E. coli; Lettuce, Seymor et al. 2002) was 0.72 Log CFU. The “log CFU/mL reduction” value (Salmonella [7]; 10 ppm free chlorine) was 1.20 B ± 0.10 log CFU/mL, the “log CFU/mL reduction” value (Salmonella [7]; 16 ppm free chlorine) was 2.72 A ± 0.53 log CFU/mL and the “log CFU/mL reduction” value (Salmonella [7]; 48 ppm free chlorine) was 0.25 ± 0.25 log CFU/mL. For the same compound, the “reduction, E. coli O157:H7” value (E. coli O157:H7 [8]) was 2.92 ± 0.38 BC log CFU/g, the inactivation of pathogens (Total Coliforms [9]) was 1.1 log and the inactivation of pathogens [10] was 1.53 log. For the same compound, the “reduction, Salmonella” value (Salmonella [11]) was 2.60 ± 0.25 B log CFU/g, the Inactivation (Total Coliforms [12]) was <2.0 Log CFU and the “average log reduction in previous studies” value [13] was 1.24 log CFU.

Reference: patent US20200093128A1, “ACIDULATED SURFACTANT COMPOSITIONS AND METHODS OF REDUCING MICROBIAL LOAD” (The United States of America, as represented by the …, priority 2018, published 2020)
